Results from patent publication US20240174695A1, “Spirocycle Containing Bicyclic Heteroaryl Compounds” (Protego Biopharma, Inc., priority 2022, published 2024).

Tested on: Recombinant amyloidogenic full length light chain protein WIL-FL T46L
Assay: Differential Scanning Fluorimetry Assay (thermal shift assay); further: test concentration or dose not given here
Assay type: binding
Settings: Thermal Shift Protein Stability Kit (Biotium), 96-well plates; protein and compounds incubated at RT for 30 min before adding the dye
Procedure: Differential Scanning Fluorimetry Assay
The stabilization effects the compounds have on the immunoglobulin light chain protein were quantitively measured using a thermal shift assay. Recombinant amyloidogenic full length light chain protein WIL-FL T46L was produced in E. coli, purified, and used in the assay. The Thermal Shift Protein Stability Kit from Biotium was used and the assay was done in 96-well plates following the manufacturer's instructions. The protein and compounds were incubated at RT for 30 min before adding the dye and subjected to the thermal shift assay. The thermal stability (Tm) of each sample was then determined using standard curve fitting methods and compared to vehicle. Data are expressed as temperature shift: [Tm]compound−[Tm]vehicle.
Results • 0-0.5° C.=* • >0.5-1° C.=** • >1-1.5° C.=*** • >1.5-2.5° C.=**** • >2.5° C.=*****

Cc1cc(N2CCC(C)(c3ccccc3)C2)cn2nc(CCN3CCCC4(CCN(c5nccn6cnnc56)CC4)C3=O)nc12 (stereo in doubt) [Compound 28, (R)-9-([1,2,4]triazolo[4,3-a]pyrazin-8-yl)-2-(2-(8-methyl-6-(3-methyl-3-phenylpyrrolidin-1-yl)-[1,2,4]triazolo[1,5-a]pyridin-2-yl)ethyl)-2,9-diazaspiro[5.5]undecan-1-one]
DSF temperature shift: [Tm]compound−[Tm]vehicle: ***** (>2.5° C.=*****)

Cc1cc(N2CCC(C)(c3ccccc3)C2)cn2nc(CCN3CC4(CCN(c5nccn6ccnc56)CC4)NC3=O)nc12 (centres unmarked) [Compound 1, 8-(Imidazo[1,2-a]pyrazin-8-yl)-3-(2-(8-methyl-6-(3-methyl-3-phenylpyrrolidin-1-yl)-[1,2,4]triazolo[1,5-a]pyridin-2-yl)ethyl)-1,3,8-triazaspiro[4.5]decan-2-one]
DSF temperature shift: [Tm]compound−[Tm]vehicle: ***** (>2.5° C.=*****)

Cc1cc(N2CC[C@](C)(c3ccccc3)C2)cn2nc(CCN3CC4(CCN(c5nccn6ccnc56)CC4)NC3=O)nc12 [Compound 2]
DSF temperature shift: [Tm]compound−[Tm]vehicle: ***** (>2.5° C.=*****)

Cc1cc(N2CC[C@@](C)(c3ccccc3)C2)cn2nc(CCN3CC4(CCN(c5nccn6ccnc56)CC4)NC3=O)nc12 [Compound 3]
DSF temperature shift: [Tm]compound−[Tm]vehicle: ***** (>2.5° C.=*****)

Cc1cc(N2CCC(C)(c3ccccc3)C2)cn2nc(CCCN3CC4(CCN(c5nccn6ccnc56)CC4)NC3=O)nc12 (centres unmarked) [Compound 4]
DSF temperature shift: [Tm]compound−[Tm]vehicle: ***** (>2.5° C.=*****)

CCC1(c2ccccc2)CCN(c2cc(C)c3nc(CCN4CC5(CCN(c6nccn7ccnc67)CC5)NC4=O)nn3c2)C1 (centres unmarked) [Compound 5]
DSF temperature shift: [Tm]compound−[Tm]vehicle: ***** (>2.5° C.=*****)

CC[C@]1(c2ccccc2)CCN(c2cc(C)c3nc(CCN4CC5(CCN(c6nccn7cncc67)CC5)NC4=O)nn3c2)C1 [Compound 6]
DSF temperature shift: [Tm]compound−[Tm]vehicle: ***** (>2.5° C.=*****)

CC[C@@]1(c2ccccc2)CCN(c2cc(C)c3nc(CCN4CC5(CCN(c6nccn7cncc67)CC5)NC4=O)nn3c2)C1 [Compound 7]
DSF temperature shift: [Tm]compound−[Tm]vehicle: ***** (>2.5° C.=*****)

CC[C@]1(c2ccccc2)CCN(c2cc(C)c3nc(CCN4CC5(CCN(c6nccn7cnnc67)CC5)NC4=O)nn3c2)C1 [Compound 8]
DSF temperature shift: [Tm]compound−[Tm]vehicle: ***** (>2.5° C.=*****)

Cc1cc(OCC(C)c2ccccc2)cn2nc(CCN3CC4(CCN(c5nccn6ccnc56)CC4)NC3=O)nc12 (centres unmarked) [Compound 9, 8-(Imidazo[1,2-a]pyrazin-8-yl)-3-(2-(8-methyl-6-(2-phenylpropoxy)-[1,2,4]triazolo[1,5-a]pyridin-2-yl)ethyl)-1,3,8-triazaspiro[4.5]decan-2-one]
DSF temperature shift: [Tm]compound−[Tm]vehicle: ***** (>2.5° C.=*****)

Cc1cc(OC[C@H](C)c2ccccc2)cn2nc(CCN3CC4(CCN(c5nccn6ccnc56)CC4)NC3=O)nc12 [Compound 10]
DSF temperature shift: [Tm]compound−[Tm]vehicle: ***** (>2.5° C.=*****)

Cc1cc(OC[C@@H](C)c2ccccc2)cn2nc(CCN3CC4(CCN(c5nccn6ccnc56)CC4)NC3=O)nc12 [Compound 11]
DSF temperature shift: [Tm]compound−[Tm]vehicle: **** (>1.5-2.5° C.=****)

Cc1cc(OC[C@@H](C)c2ccccc2)cn2nc(CCN3CC4(CCN(c5nccn6cncc56)CC4)NC3=O)nc12 [Compound 12]
DSF temperature shift: [Tm]compound−[Tm]vehicle: ***** (>2.5° C.=*****)

Cc1cc(OCC(C)c2ccccc2)cn2nc(CCN3CC4(CCN(c5nccn6cnnc56)CC4)NC3=O)nc12 (centres unmarked) [Compound 13]
DSF temperature shift: [Tm]compound−[Tm]vehicle: ***** (>2.5° C.=*****)

Cc1c(CCN2C(=O)NC3(CCN(c4nccn5ccnc45)CC3)C2=O)nc2cc(O[C@H](C)c3ccccc3)ccn12 [Compound 14, 8-(Imidazo[1,2-a]pyrazin-8-yl)-3-(2-(3-methyl-7-(1-phenylethoxy)imidazo[1,2-a]pyridin-2-yl)ethyl)-1,3,8-triazaspiro[4.5]decane-2,4-dione]
DSF temperature shift: [Tm]compound−[Tm]vehicle: ** (>0.5-1° C.=**)

CC(=O)N1CCC(N2CCC3(CC2)CN(CC(O)c2nc4c(C)cc(OCC5(c6ccccc6)CC5)cn4n2)C(=O)N3)CC1 (centres unmarked) [Compound 15]
DSF temperature shift: [Tm]compound−[Tm]vehicle: *** (>1-1.5° C.=***)

Cc1cc(N2CC3(CN(CC(O)c4nc5c(C)cc(OC[C@H](C)c6ccccc6)cn5n4)C(=O)N3)C2)cc(O)n1 (some centres unmarked) [Compound 16]
DSF temperature shift: [Tm]compound−[Tm]vehicle: ***** (>2.5° C.=*****)

Cc1cc(N2CCC(C)(c3ccccc3)C2)cn2nc(CCCN3C(=O)NC4(CCN(c5nccn6ccnc56)CC4)C3=O)nc12 (centres unmarked) [Compound 17]
DSF temperature shift: [Tm]compound−[Tm]vehicle: ***** (>2.5° C.=*****)

Cc1cc(N2CCC3(CC2)CN(CC(O)c2nc4c(C)cc(OCC5(c6ccccc6)CC5)cn4n2)C(=O)N3)ccn1 (centres unmarked) [Compound 18]
DSF temperature shift: [Tm]compound−[Tm]vehicle: ***** (>2.5° C.=*****)

Cc1cc(N2CC[C@@](C)(c3ccccc3)C2)cn2nc(C(C)(O)CN3CC4(CCN(c5ccnc(O)c5)CC4)NC3=O)nc12 (some centres unmarked) [Compound 20]
DSF temperature shift: [Tm]compound−[Tm]vehicle: ***** (>2.5° C.=*****)

Cc1cc(N2CC[C@@](C)(c3ccccc3)C2)cn2nc(C(O)CN3CC4(CCN(c5ccnc(O)c5)CC4)NC3=O)nc12 (some centres unmarked) [Compound 21]
DSF temperature shift: [Tm]compound−[Tm]vehicle: ***** (>2.5° C.=*****)

Cc1cc(N2CC[C@@](C)(c3ccccc3)C2)cn2nc(C(O)CN3CC4(CCN(c5nccn6ccnc56)CC4)NC3=O)nc12 (some centres unmarked) [Compound 22]
DSF temperature shift: [Tm]compound−[Tm]vehicle: ***** (>2.5° C.=*****)

Cc1cc(N2CC[C@@](C)(c3ccccc3)C2)cn2nc(C(O)CN3CC4(CN(c5ccnc(O)c5)C4)NC3=O)nc12 (some centres unmarked) [Compound 23]
DSF temperature shift: [Tm]compound−[Tm]vehicle: ***** (>2.5° C.=*****)

Cc1cc(N2CC[C@@](C)(c3ccccc3)C2)cn2nc(C(O)CN3CC4(CN(c5cccc(C(=O)O)n5)C4)NC3=O)nc12 (some centres unmarked) [Compound 25]
DSF temperature shift: [Tm]compound−[Tm]vehicle: ***** (>2.5° C.=*****)

Cc1cc(N2CC[C@@](C)(c3ccccc3)C2)cn2nc(C(O)CN3CC4(CN(c5cccc(O)n5)C4)NC3=O)nc12 (some centres unmarked) [Compound 26]
DSF temperature shift: [Tm]compound−[Tm]vehicle: ***** (>2.5° C.=*****)

Cc1cc(N2CC[C@@](C)(c3ccccc3)C2)cn2nc(CCN3CC4(CN(c5ccnc(O)c5)C4)NC3=O)nc12 [Compound 27]
DSF temperature shift: [Tm]compound−[Tm]vehicle: ***** (>2.5° C.=*****)

Cc1cc(OCC2(c3ccccc3)CC2)cn2nc(C(O)CN3CC4(CCN(C(=O)C5(c6ccccn6)CC5)CC4)NC3=O)nc12 (centres unmarked) [Compound 29]
DSF temperature shift: [Tm]compound−[Tm]vehicle: ***** (>2.5° C.=*****)

Cc1cc(OCC2(c3ccccc3)CC2)cn2nc(C(O)CN3CC4(CCN(C(=O)c5nncn5C)CC4)NC3=O)nc12 (centres unmarked) [Compound 30, 3-(2-hydroxy-2-(8-methyl-6-((1-phenylcyclopropyl)methoxy)-[1,2,4]triazolo[1,5-a]pyridin-2-yl)ethyl)-8-(4-methyl-4H-1,2,4-triazole-3-carbonyl)-1,3,8-triazaspiro[4.5]decan-2-one]
DSF temperature shift: [Tm]compound−[Tm]vehicle: **** (>1.5-2.5° C.=****)

Cc1nonc1C(=O)N1CCC2(CC1)CN(CC(O)c1nc3c(C)cc(OCC4(c5ccccc5)CC4)cn3n1)C(=O)N2 (centres unmarked) [Compound 31]
DSF temperature shift: [Tm]compound−[Tm]vehicle: **** (>1.5-2.5° C.=****)

Cc1cc(OCC2(c3ccccc3)CC2)cn2nc(C(O)CN3CC4(CCN(C(=O)Cc5nnc[nH]5)CC4)NC3=O)nc12 (centres unmarked) [Compound 32]
DSF temperature shift: [Tm]compound−[Tm]vehicle: **** (>1.5-2.5° C.=****)

Cc1cc(OCC2(c3ccccc3)CC2)cn2nc(C(O)CN3CC4(CCN(C(=O)Cn5cnnn5)CC4)NC3=O)nc12 (centres unmarked) [Compound 33]
DSF temperature shift: [Tm]compound−[Tm]vehicle: **** (>1.5-2.5° C.=****)

Cc1cc(OCC2(c3ccccc3)CC2)cn2nc(C(O)CN3CC4(CCN(C(=O)Cn5nnnc5C)CC4)NC3=O)nc12 (centres unmarked) [Compound 34]
DSF temperature shift: [Tm]compound−[Tm]vehicle: **** (>1.5-2.5° C.=****)
